# Tests used:
# PI3K (p110α/p85α) (h) = PI3K (p110α/p85α) (h) (Homo sapiens (Human), UniProt P42336); assay: PI3K (p110α/p85α) (h) non-radioactive HTRF kinase assay; format: biochemical
# Experimental: (§1) PI3K (p110α/p85α) (h) is incubated in assay buffer containing 10 μM phosphatidylinositol 4,5-bisphosphate and MgATP (concentration as required). The reaction is initiated by the addition of the ATP solution. After incubation for 30 minutes at room temperature, the reaction is stopped by the addition of stop solution containing EDTA and biotinylated phosphatidylinositol-3,4,5-trisphosphate. Finally, detection buffer is added, which contains europium-labelled anti-GST monoclonal antibody, GST-tagged GRP1 PH domain and streptavidin allophycocyanin. The plate is then read in timeresolved fluorescence mode and the homogenous time-resolved fluorescence (HTRF) signal is determined according to the formula HTRF=10000×(Em665 nm/Em620 nm).
# (§2) The kinase assays described herein were performed at Millipore UK Ltd, Dundee Technology Park, Dundee DD2 1SW, UK.
# PI3K (p110δ/p85α) (h) = PI3K (p110δ/p85α) (h) (Homo sapiens (Human), UniProt O00329); assay: PI3K (p110δ/p85α) (h) non-radioactive HTRF kinase assay; format: biochemical
# PI3K (p110δ/p85α) (h), sequence (O00329 whole entry): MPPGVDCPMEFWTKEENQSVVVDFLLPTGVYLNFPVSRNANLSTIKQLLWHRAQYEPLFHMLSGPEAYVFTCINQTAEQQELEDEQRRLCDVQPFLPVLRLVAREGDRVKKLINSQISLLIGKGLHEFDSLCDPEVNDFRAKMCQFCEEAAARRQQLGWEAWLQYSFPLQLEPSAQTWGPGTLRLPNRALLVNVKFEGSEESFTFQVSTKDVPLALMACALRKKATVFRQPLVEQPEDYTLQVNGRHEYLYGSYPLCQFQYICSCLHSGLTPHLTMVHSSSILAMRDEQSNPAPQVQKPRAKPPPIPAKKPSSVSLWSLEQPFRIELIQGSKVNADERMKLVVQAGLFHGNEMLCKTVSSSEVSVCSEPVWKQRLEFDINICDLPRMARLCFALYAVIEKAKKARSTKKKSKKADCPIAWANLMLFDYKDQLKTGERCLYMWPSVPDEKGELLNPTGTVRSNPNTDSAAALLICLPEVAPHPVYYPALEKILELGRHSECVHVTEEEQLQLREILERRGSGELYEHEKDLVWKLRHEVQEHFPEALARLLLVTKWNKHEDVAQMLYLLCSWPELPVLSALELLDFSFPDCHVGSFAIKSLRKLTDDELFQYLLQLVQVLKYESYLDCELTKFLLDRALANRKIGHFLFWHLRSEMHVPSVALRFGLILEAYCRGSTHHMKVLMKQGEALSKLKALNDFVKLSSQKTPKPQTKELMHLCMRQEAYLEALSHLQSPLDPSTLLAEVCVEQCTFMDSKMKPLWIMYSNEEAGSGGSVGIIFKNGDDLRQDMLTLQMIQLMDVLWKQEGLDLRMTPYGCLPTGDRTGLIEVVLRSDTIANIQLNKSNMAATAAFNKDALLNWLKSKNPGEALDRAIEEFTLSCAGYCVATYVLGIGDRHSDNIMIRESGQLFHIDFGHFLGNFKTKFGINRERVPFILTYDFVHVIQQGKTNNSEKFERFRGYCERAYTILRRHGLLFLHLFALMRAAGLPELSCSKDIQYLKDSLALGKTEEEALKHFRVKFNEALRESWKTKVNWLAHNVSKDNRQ
# PI3K (p110δ/p85α) (h), sequence (P27986 whole entry partner): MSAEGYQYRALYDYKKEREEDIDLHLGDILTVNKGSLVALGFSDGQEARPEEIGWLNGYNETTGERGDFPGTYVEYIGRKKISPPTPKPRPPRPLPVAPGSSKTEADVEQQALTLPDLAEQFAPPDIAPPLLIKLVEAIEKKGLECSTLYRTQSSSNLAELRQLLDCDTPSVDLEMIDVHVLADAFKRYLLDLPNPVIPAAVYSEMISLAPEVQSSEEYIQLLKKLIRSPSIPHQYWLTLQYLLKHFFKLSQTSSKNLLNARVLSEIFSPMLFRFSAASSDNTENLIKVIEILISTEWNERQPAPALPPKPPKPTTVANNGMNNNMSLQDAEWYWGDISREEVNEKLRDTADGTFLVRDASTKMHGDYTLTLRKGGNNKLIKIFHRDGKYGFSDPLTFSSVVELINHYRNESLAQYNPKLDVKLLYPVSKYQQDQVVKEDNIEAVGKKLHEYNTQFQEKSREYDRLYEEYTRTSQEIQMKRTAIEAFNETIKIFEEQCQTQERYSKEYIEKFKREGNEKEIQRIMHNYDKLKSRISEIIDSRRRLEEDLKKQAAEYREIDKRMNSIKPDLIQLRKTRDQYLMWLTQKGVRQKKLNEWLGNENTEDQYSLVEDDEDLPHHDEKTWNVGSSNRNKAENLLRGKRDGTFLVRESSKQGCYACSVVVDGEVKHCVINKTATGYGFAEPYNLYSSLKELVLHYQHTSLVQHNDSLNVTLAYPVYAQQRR
# Experimental: as §1, with “(p110δ/p85α)” for “(p110α/p85α)”, “phosphatidylinositol-4, 5-bisphosphate” for “phosphatidylinositol 4,5-bisphosphate”, “MgATP mix.” for “ATP solution.”, “streptavidin-allophycocyanin.” for “streptavidin allophycocyanin.”
# as §2
# PI3K (p120γ) (h) = PI3K (p120γ) (h) (Homo sapiens (Human), UniProt P48736); assay: PI3K (p120γ) (h) non-radioactive HTRF kinase assay; format: biochemical
# PI3K (p120γ) (h), sequence (P48736 whole entry): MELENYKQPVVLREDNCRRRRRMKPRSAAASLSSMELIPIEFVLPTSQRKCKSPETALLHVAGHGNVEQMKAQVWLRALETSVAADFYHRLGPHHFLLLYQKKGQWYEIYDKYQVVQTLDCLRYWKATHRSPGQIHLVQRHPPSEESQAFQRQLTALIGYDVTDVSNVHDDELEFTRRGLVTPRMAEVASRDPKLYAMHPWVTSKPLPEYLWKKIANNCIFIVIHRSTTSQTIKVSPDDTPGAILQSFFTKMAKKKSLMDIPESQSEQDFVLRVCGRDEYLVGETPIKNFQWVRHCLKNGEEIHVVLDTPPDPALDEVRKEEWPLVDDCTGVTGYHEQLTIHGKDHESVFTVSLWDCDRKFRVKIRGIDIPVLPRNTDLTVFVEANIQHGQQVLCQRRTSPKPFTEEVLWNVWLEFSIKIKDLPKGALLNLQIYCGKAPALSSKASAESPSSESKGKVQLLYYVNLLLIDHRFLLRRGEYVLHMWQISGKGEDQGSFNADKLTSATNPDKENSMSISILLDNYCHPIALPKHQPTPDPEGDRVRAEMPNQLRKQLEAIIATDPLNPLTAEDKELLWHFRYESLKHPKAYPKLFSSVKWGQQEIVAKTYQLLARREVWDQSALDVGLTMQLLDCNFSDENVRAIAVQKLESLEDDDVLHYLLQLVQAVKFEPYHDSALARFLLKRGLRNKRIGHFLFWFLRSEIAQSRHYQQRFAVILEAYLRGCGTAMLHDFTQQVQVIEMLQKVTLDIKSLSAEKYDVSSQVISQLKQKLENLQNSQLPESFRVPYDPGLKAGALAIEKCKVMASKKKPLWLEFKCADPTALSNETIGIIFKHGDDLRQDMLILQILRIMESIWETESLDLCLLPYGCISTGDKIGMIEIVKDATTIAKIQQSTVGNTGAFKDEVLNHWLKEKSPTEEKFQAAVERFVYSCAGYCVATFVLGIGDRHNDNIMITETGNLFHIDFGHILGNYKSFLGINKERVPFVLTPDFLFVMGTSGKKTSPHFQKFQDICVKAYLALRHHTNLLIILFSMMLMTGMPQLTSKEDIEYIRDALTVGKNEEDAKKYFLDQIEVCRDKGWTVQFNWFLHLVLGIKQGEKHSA
# Experimental: as §1, with “(p120γ)” for “(p110α/p85α)”, “phosphatidylinositol-4, 5-bisphosphate” for “phosphatidylinositol 4,5-bisphosphate”, “MgATP mix.” for “ATP solution.”, “streptavidin-allophycocyanin.” for “streptavidin allophycocyanin.”
# as §2
# PI3K (p110β/p85α) (h) = PI3K (p110β/p85α) (h) (Homo sapiens (Human), UniProt P42338); assay: PI3K (p110β/p85α) (h) non-radioactive HTRF kinase assay; format: biochemical
# PI3K (p110β/p85α) (h), sequence (P42338 whole entry): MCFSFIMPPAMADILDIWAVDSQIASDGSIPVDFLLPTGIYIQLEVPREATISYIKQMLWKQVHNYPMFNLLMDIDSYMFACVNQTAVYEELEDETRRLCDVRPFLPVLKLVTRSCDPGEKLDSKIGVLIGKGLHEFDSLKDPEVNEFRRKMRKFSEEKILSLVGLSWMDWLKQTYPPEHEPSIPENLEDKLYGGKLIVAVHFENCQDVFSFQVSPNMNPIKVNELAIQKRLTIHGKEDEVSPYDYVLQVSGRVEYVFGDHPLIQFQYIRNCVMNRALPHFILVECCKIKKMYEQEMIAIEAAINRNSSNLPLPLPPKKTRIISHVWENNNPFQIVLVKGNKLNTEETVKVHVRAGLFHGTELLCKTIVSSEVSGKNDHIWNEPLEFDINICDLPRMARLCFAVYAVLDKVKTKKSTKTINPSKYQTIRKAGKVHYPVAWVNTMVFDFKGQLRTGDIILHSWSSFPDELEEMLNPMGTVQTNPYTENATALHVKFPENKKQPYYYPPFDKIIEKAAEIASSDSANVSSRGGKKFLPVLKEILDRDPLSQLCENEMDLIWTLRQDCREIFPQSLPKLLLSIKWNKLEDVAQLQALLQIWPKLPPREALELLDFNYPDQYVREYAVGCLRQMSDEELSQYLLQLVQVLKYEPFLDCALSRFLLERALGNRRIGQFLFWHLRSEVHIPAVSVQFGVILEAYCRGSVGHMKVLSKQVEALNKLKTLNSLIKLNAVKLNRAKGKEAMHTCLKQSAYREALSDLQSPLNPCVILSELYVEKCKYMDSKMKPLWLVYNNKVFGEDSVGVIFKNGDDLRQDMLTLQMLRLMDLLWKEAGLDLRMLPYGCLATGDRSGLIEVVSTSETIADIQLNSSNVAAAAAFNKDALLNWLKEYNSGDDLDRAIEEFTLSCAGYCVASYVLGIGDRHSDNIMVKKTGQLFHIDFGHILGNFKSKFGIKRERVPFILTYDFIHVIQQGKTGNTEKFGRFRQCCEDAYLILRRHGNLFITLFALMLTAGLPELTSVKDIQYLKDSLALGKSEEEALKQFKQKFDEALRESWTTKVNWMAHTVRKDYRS
# PI3K (p110β/p85α) (h), sequence (P27986 whole entry partner): as the sequence (P27986 whole entry partner) above
# Experimental: as §1, with “(p110β/p85α)” for “(p110α/p85α)”, “phosphatidylinositol-4,5-bisphosphate” for “phosphatidylinositol 4,5-bisphosphate”, “MgATP mix.” for “ATP solution.”, “streptavidin-allophycocyanin.” for “streptavidin allophycocyanin.”
# as §2
# [1] = Pharmacokinetic profiles in rats; format: in vivo, rat; conditions: for clearance / AUC(0-t) / half-life / Vd: iv dosing 1 mg/kg; for AUC(0-t) / half-life / Vd / bioavailability: rat, plasma; for Vd: read-out: Vss; for bioavailability: oral bioavailability
# Experimental: The compounds disclosed herein are assessed in pharmacokinetic studies in mice, rats, dogs or monkeys. The compounds are administered as a water solution, 2% HPMC+1% TWEEN®80 in water solution, 5% DMSO+5% solutol in saline, 4% MC suspension or capsule. For the intravenous administration, the animals are generally given at 1 or 2 mg/kg dose. For the oral (p.o.) dosing, mice and rats are generally given 5 or 10 mg/kg dose, and dogs and monkeys are generally given 10 mg/kg dose. The blood samples (0.3 mL) are drawn at 0.25, 0.5, 1.0, 2.0, 3.0, 4.0, 6.0, 8.0, 12 and 24 h time points or 0.083, 0.25, 0.5, 1.0, 2.0, 4.0, 6.0, 8.0 and 24 h time points and centrifuged at 3,000 or 4000 rpm for 2 to 10 min. The plasma solutions are collected, stored at −20° C. or −70° C. until analyzed by LC/MS/MS as described above.
# [2] = Compound stability in rat liver microsomes; format: in vitro ADME; conditions: for CLint scaled at 5 μM: liver microsomes, in vivo CLint extrapolated from rat liver microsome incubation; for CLint scaled at 5 μM / half-life at 5 μM: pH 7.4; for half-life at 5 μM: read-out: Rat T1/2
# Experimental: (§3) Human or rat liver microsomes incubations were conducted in duplicate in polypropylene tubes. The typical incubation mixtures consisted of human or rat liver microsomes (0.5 mg protein/mL), compounds of interest (5 μM) and NADPH (1.0 mM) in a total volume of 200 μL potassium phosphate buffer (PBS, 100 mM, pH 7.4). Compounds were dissolved in DMSO and diluted with PBS such that the final concentration of DMSO was 0.05%. The enzymatic reactions were commenced with the addition of protein after a 3-min preincubation and incubated in a water bath open to the air at 37° C. Reactions were terminated at various time points (0, 5, 10, 15, 30, 60 min) by adding equal volume of ice-cold acetonitrile. The samples were stored at −80° C. until LC/MS/MS assays.
# (§4) The concentrations of compounds in the incubation mixtures of human or rat liver microsomes were determined by a LC/MS/MS method. The ranges of the linearity in the concentration range were determined for each tested compounds.
# (§5) A parallel incubation was performed using denatured microsomes as the negative control, and reactions were terminated at various time points (0, 15, 60 min) after incubation at 37° C.
# (§6) Dextromethorphan (70 μM) was selected as the positive control, and reactions were terminated at various time points (0, 5, 10, 15, 30, 60 min) after incubation at 37° C. Both positive and negative control samples were included in each assay to ensure the integrity of the microsomal incubation system.
# (§7) The concentrations of compounds in human or rat liver microsome incubations were plotted as a percentage of the relevant zero time point control for each reaction.
# [3] = Compound stability in human liver microsomes; format: in vitro ADME; conditions: pH 7.4; for CLint scaled at 5 μM: liver microsomes, in vivo CLint extrapolated from human liver microsome incubation; for half-life at 5 μM: human liver microsomes 0.5 mg protein/mL, compound 5 μM, NADPH, 37° C., read-out: Human T1/2
# Experimental: as §3, §4, §5, §6, §7
# [4] = rat liver microsomes 0.5 mg protein/mL, compound 5 μM, NADPH, 37° C.
# PI3K (p110α/p85α) (h), sequence (P42336 whole entry, the tested form may be a part): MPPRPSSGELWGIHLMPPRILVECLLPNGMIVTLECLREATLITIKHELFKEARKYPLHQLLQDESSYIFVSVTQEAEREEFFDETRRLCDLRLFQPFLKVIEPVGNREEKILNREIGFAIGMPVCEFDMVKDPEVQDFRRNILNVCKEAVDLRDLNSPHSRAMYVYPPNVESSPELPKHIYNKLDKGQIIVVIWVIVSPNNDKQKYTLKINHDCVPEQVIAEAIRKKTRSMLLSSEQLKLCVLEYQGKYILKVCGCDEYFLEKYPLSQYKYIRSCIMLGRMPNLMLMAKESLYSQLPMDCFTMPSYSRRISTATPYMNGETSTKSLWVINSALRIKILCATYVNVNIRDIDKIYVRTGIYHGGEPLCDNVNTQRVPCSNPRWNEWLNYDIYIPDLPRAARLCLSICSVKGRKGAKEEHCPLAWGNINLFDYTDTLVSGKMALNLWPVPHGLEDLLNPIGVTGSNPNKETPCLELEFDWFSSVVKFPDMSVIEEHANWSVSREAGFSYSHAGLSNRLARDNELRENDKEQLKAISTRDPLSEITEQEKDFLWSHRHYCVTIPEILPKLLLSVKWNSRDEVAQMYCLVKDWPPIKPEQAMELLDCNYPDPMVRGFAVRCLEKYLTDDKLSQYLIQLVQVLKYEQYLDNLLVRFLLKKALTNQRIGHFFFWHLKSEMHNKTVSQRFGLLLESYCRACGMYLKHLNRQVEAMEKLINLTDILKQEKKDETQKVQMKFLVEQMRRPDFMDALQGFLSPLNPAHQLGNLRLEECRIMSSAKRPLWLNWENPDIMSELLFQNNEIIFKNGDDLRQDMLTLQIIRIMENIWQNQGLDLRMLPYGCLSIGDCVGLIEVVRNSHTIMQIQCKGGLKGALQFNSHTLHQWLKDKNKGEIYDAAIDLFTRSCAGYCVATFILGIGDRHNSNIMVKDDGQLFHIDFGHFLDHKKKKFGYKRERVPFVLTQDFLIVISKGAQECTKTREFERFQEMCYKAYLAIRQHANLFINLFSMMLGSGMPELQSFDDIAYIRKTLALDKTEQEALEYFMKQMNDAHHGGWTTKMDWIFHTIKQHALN
# PI3K (p110α/p85α) (h), sequence (P27986 whole entry partner, the tested form may be a part): as the sequence (P27986 whole entry partner) above
Structure (SMILES),IC50 (PI3K (p110α/p85α) (h)) [nM],IC50 (PI3K (p110δ/p85α) (h)) [nM],IC50 (PI3K (p120γ) (h)) [nM],IC50 (PI3K (p110β/p85α) (h)) [nM],clearance [1] [mL/min/kg],AUC(0-t) [1] [ng·h/mL],half-life [1] [h],Vd [1] [L/kg],bioavailability [1] [%],CLint scaled at 5 μM [2] [mL/min/kg],"half-life at 5 μM [2, 4] [h]",CLint scaled at 5 μM [3] [mL/min/kg],half-life at 5 μM [3] [h],"Rat T1/2 [2, 4]"
"Cc1noc(-c2c(N)ncnc2N[C@@H](C)c2cc3cccc(C#CCO)c3c(=O)n2C2CC2)n1 [Example 33, (S)-3-(1-((6-amino-5-(3-methyl-1,2,4-oxadiazol-5-yl)-pyrimidin-4-yl)amino)ethyl)-2-cyclopropyl-8-(3-hydroxyprop-1-yn-1-yl)-isoquinolin-1 (2H)-one]",1000,11,118,104,,,,,,,,,,
"Cc1nc(-c2c(N)ncnc2N[C@@H](C)c2nc3cccc(C#CCO)c3c(=O)n2-c2ccccc2)no1 [Example 38, (S)-2-(1-((6-amino-5-(5-methyl-1,2,4-oxadiazol-3-yl)pyrimidin-4-yl)amino)ethyl)-5-(3-hydroxyprop-1-yn-1-yl)-3-phenylquinazolin-4(3H)-one]",,,,,21.3,790,0.76,1.35,40.4,52.7,0.785,40.4,0.717,
"CC#Cc1cccc2nc([C@H](CC)Nc3ncnc(N)c3-c3nnc(C)o3)n(-c3ccccc3)c(=O)c12 [Example 15, (S)-2-(1-((6-amino-5-(5-methyl-1,3,4-oxadiazol-2-yl)pyrimidin-4-yl)amino)propyl)-3-phenyl-5-(prop-1-yn-1-yl)quinazolin-4(3H)-one]",> 3000,27,704,> 3000,,,,,,,,,,
CC#Cc1cccc2nc([C@H](C)Nc3ncnc(N)c3-c3nnc(C)o3)n(C3CC3)c(=O)c12 [Example 22],,,,,25.3,675,0.97,1.83,83.7,41.8,0.991,62.5,0.464,
"Cc1nc(-c2c(N)ncnc2N[C@@H](C)c2nc3cccc(C#CC(C)(C)O)c3c(=O)n2-c2ccccc2)no1 [Example 3, (S)-2-(1-((6-amino-5-(5-methyl-1,2,4-oxadiazol-3-yl)pyrimidin-4-yl)amino)ethyl)-5-(3-hydroxy-3-methylbut-1-yn-1-yl)-3-phenylquinazolin-4(3H)-one]",,,,,13,1210,1.76,,146,4.75,8.72,9.46,3.06,
"Cc1nnc(-c2c(N)ncnc2N[C@@H](C)c2nc3cccc(C#CC(C)(C)O)c3c(=O)n2-c2ccccc2)o1 [Example 2, (S)-2-(1-((6-amino-5-(5-methyl-1,3,4-oxadiazol-2-yl)pyrimidin-4-yl)amino)ethyl)-5-(3-hydroxy-3-methylbut-1-yn-1-yl)-3-phenylquinazolin-4(3H)-one]",,,,,11.3,1370,1.42,1.3,106,,,3.84,7.54,∞
"Cc1noc(-c2c(N)ncnc2N[C@@H](C)c2nc3cccc(C#CC(C)(C)O)c3c(=O)n2-c2ccccc2)n1 [Example 1, (S)-2-(1-((6-amino-5-(3-methyl-1,2,4-oxadiazol-5-yl)pyrimidin-4-yl)amino)ethyl)-5-(3-hydroxy-3-methylbut-1-yn-1-yl)-3-phenylquinazolin-4(3H)-one]",,,,,9.17,1440,3.24,2.38,120,2.5,16.3,14.3,2.03,
"C#Cc1cccc2nc([C@H](C)Nc3ncnc(N)c3-c3nnn(C)n3)n(C3CC3)c(=O)c12 [Example 52, (S)-2-(1-((6-amino-5-(2-methyl-2H-tetrazol-5-yl)pyrimidin-4-yl)amino)ethyl)-3-cyclopropyl-5-ethynylquinazolin-4(3H)-one]",,,,,23,722,0.73,1.11,70.8,79.8,0.519,89.4,0.324,
"Cc1nnc(-c2c(N)ncnc2N[C@@H](C)c2nc3cccc(C#CC(C)O)c3c(=O)n2-c2ccccc2)o1 (stereo partly drawn) [Example 7, 2-((S)-1-((6-amino-5-(5-methyl-1,3,4-oxadiazol-2-yl)pyrimidin-4-yl)amino)ethyl)-5-(3-hydroxybut-1-yn-1-yl)-3-phenylquinazolin-4(3H)-one]",,,,,19.3,862,0.61,0.61,38.3,15.3,2.71,6.34,4.57,
"C[C@H](Nc1ncnc(N)c1-c1nnn(C)n1)c1nc2cccc(C#CC(C)(C)O)c2c(=O)n1-c1ccccc1 [Example 4, (S)-2-(1-((6-amino-5-(2-methyl-2H-tetrazol-5-yl)pyrimidin-4-yl)amino)ethyl)-5-(3-hydroxy-3-methylbut-1-yn-1-yl)-3-phenylquinazolin-4(3H)-one]",,,,,8.33,1870,1.87,1.04,134,5.58,7.41,5.8,5,

# Source: US10751339B2, “Substituted aminopyrimidine compounds and methods of use” (SUNSHINE LAKE PHARMA CO., LTD., priority 2018, dated 2020)
